Assay results from patent US20240269139A1, “COMPOUNDS FOR TARGETED PROTEIN DEGRADATION OF KINASES” (DANA-FARBER CANCER INSTITUTE, INC., priority 2020, published 2024).
Values joined by “and” are separate entries in the source; they are usually repeats but may differ in a detail not shown here. Identical values can stand only once. Like-named read-outs stand apart in the source and are kept apart here.

Columns and labels:
Format in all cases: cell-based
[1] = target: protein kinases (human kinome) (Homo sapiens, UniProt Q00534); conditions: for logFC CDK6: CDK6 (Q00534), direction down; for logFC of CDK6 (Q00534): down
[2] = target: T1, protein kinases (human kinome) (Homo sapiens, UniProt O75385); conditions: for logFC: ULK1 (O75385) protein abundance, degrader vs DMSO, down; for logFC ULK1: ULK1 O75385
T1 sequence (O75385 1-1050): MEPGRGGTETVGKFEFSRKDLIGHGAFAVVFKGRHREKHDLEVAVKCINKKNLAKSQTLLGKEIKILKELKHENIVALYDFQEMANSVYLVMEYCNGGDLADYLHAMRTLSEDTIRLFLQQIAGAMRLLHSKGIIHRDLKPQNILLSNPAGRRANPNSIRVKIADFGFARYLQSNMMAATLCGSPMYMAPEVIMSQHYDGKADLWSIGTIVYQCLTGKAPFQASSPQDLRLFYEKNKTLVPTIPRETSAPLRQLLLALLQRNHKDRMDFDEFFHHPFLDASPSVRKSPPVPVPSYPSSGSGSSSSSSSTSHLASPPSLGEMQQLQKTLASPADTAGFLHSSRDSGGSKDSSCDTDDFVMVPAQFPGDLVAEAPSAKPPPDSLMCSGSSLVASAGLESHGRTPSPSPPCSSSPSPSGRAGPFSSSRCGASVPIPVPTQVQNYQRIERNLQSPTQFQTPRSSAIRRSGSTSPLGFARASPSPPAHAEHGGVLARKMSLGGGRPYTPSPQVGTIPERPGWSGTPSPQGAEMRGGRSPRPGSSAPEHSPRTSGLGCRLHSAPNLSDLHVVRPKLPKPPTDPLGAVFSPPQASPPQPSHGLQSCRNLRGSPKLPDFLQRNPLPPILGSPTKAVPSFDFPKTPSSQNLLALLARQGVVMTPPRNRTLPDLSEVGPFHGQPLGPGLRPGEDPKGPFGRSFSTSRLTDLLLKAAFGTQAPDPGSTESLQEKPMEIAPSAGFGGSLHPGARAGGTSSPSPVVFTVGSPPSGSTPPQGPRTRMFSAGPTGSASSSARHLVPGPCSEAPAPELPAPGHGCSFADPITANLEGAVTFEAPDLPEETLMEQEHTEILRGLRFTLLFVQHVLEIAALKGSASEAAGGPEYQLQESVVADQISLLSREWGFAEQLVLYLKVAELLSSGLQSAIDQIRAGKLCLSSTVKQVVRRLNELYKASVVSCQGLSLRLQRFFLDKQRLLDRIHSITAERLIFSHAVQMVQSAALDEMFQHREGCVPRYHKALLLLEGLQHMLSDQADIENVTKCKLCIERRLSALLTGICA

[3] = test system: protein kinases (human kinome); conditions: for logFC ABL1: ABL1 (P00519-2); for logFC of SRC: Accession P12931-2; for logFC CDK12: Accession Q9NYV4-2; for logFC of FER: FER P16591-3
[4] = AURKB Q96GD4-5, experiment wp103
[5] = AURKB Q96GD4-5, experiment wp105
[6] = AURKB Q96GD4-5, experiment wp107
[7] = AURKB Q96GD4-5, experiment wp133, 1 hr
[8] = AURKB Q96GD4-5, experiment wp133, 2 hr
[9] = AURKB Q96GD4-5, experiment wp133, 4 hr
[10] = Experiment wp107, direction down

protein kinases (human kinome) (Homo sapiens, UniProt Q00534), sequence (Q00534 whole entry): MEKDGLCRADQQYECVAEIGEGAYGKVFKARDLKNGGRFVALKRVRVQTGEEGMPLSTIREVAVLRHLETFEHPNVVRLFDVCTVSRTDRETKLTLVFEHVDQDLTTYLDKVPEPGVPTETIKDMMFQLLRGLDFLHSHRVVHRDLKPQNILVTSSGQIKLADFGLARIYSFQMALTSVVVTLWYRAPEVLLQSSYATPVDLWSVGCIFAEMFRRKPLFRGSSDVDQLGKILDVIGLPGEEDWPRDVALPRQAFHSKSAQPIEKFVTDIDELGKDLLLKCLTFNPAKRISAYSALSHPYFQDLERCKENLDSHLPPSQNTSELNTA

With CC(C)S(=O)(=O)c1ccccc1Nc1nc(Nc2ccc(N3CCN(CCOCCNC(=O)CNc4cccc5c4C(=O)N(C4CCC(=O)NC4=O)C5=O)CC3)cc2)ncc1Cl (centres unmarked) [SK.3.91] the “logFC CDK6” value ([1]; experiment wp016) was −0.8832, the “logFC CDK6” value ([1]; experiment wp016, 1 uM) was −1.149 and the “logFC CDK6” value ([1]; experiment wp103) was −0.9349. For the same compound, the “logFC CDK6” value ([1]; experiment wp105) was −0.5421, the “logFC CDK6” value ([1]; experiment wp107) was −1.012 and the “logFC CDK6” value ([1]; experiment wp133, 1 hr) was −0.3542. For the same compound, the “logFC CDK6” value ([1]; experiment wp133, 2 hr) was −0.6404, the “logFC CDK6” value ([1]; experiment wp133, 4 hr) was −1.05 and the “logFC CDK6” value ([1]; experiment wp160, 1 hr) was −0.3255. For the same compound, the “logFC CDK6” value ([1]; experiment wp160, 2 hr) was −0.5948, the “logFC CDK6” value ([1]; experiment wp160, 4 hr) was −1.133 and the “logFC of CDK6 (Q00534)” value ([1]; Experiment wp016, 1 uM) was −1.149. The “logFC of CDK6 (Q00534)” value ([1]; Experiment wp016) was −0.8832, the “logFC of CDK6 (Q00534)” value ([1]; Experiment wp103) was −0.9349 and the “logFC of CDK6 (Q00534)” value ([1]; Experiment wp105) was −0.5421. For the same compound, the “logFC of CDK6 (Q00534)” value ([1]; Experiment wp107) was −1.012, the “logFC of CDK6 (Q00534)” value ([1]; Experiment wp133, 1 hr) was −0.3542 and the “logFC of CDK6 (Q00534)” value ([1]; Experiment wp133, 2 hr) was −0.6404. The “logFC of CDK6 (Q00534)” value ([1]; Experiment wp133, 4 hr) was −1.05, the “logFC of CDK6 (Q00534)” value ([1]; Experiment wp160, 1 hr) was −0.3255 and the “logFC of CDK6 (Q00534)” value ([1]; Experiment wp160, 2 hr) was −0.5948. For the same compound, the “logFC of CDK6 (Q00534)” value ([1]; Experiment wp160, 4 hr) was −1.133, the logFC ([2]; 1 hr) was −1.472 and −1.466 and the logFC ([2]; 2 hr) was −2.779 and −2.583. For the same compound, the “logFC ULK1” value ([2]; experiment wp103) was −1.332, the “logFC ULK1” value ([2]; experiment wp105) was −1.712 and the “logFC ULK1” value ([2]; experiment wp107) was −1.162. The “logFC ULK1” value ([2]; experiment wp133, 1 hr) was −1.472, the “logFC ULK1” value ([2]; experiment wp133, 2 hr) was −2.779 and the “logFC ULK1” value ([2]; experiment wp133, 4 hr) was −3.572. The “logFC ULK1” value ([2]; experiment wp160, 1 hr) was −1.466, the “logFC ULK1” value ([2]; experiment wp160, 2 hr) was −2.583 and the “logFC ULK1” value ([2]; experiment wp160, 4 hr) was −3.085. The “logFC ABL1” value ([3]; experiment wp016, 1 uM) was −0.3875, the “logFC ABL1” value ([3]; experiment wp105) was −0.333 and the “logFC ABL1” value ([3]; experiment wp107) was −0.4711. For the same compound, the “logFC ABL1” value ([3]; experiment wp133, 4 hr) was −0.3801, the logFC [3, 4] was −0.3966 and the “logFC AURKB” value [3, 4] was −0.3966. For the same compound, the logFC [3, 5] was −0.7004, the “logFC AURKB” value [3, 5] was −0.7004 and the logFC [3, 6] was −0.443. The “logFC AURKB” value [3, 6] was −0.443, the logFC [3, 7] was −0.4923 and the “logFC AURKB” value [3, 7] was −0.4923. For the same compound, the logFC [3, 8] was −0.5333, the “logFC AURKB” value [3, 8] was −0.5333 and the logFC [3, 9] was −0.8007. For the same compound, the “logFC AURKB” value [3, 9] was −0.8007, the “logFC BUB1B” value ([3]; Accession O60566-3, experiment wp016, 1 uM, direction down) was −0.4685 and the “logFC BUB1B” value ([3]; Accession O60566-3, experiment wp103, direction down) was −0.3983. The “logFC BUB1B” value ([3]; Accession O60566-3, experiment wp107, direction down) was −0.5037, the “logFC BUB1B” value ([3]; Accession O60566-3, experiment wp133, 1 hr, direction down) was −0.4083 and the “logFC BUB1B” value ([3]; Accession O60566-3, experiment wp133, 2 hr, direction down) was −0.4195. For the same compound, the “logFC BUB1B” value ([3]; Accession O60566-3, experiment wp133, 4 hr, direction down) was −0.5871, the “logFC of SRC” value ([3]; experiment wp016) was −0.3847 and the “logFC of SRC” value ([3]; experiment wp016, 1 uM) was −0.8428. For the same compound, the “logFC of SRC” value ([3]; experiment wp103) was −0.5004, the “logFC of SRC” value ([3]; experiment wp105) was −0.3464 and the “logFC of SRC” value ([3]; experiment wp107) was −0.7782. For the same compound, the “logFC of SRC” value ([3]; experiment wp133, 4 hr) was −0.6408, the “logFC CSNK1D” value ([3]; Accession P48730-2, experiment wp114, direction down) was −0.3991 and the “logFC CSNK1D” value ([3]; Accession P48730-2, experiment wp160, 4 hr, direction down) was −0.3373. For the same compound, the “logFC CDK12” value ([3]; experiment wp107) was −1.042, the “logFC CDK12” value ([3]; experiment wp160, 2 hr) was −0.4558 and the “logFC CDK12” value ([3]; experiment wp160, 4 hr) was −0.8448. For the same compound, the “logFC BUB1B” value ([3]; BUB1B (O60566-3), experiment wp016, 1 uM) was −0.4685, the “logFC BUB1B” value ([3]; BUB1B (O60566-3), experiment wp103) was −0.3983 and the “logFC BUB1B” value ([3]; BUB1B (O60566-3), experiment wp107) was −0.5037. For the same compound, the “logFC BUB1B” value ([3]; BUB1B (O60566-3), experiment wp133, 1 hr) was −0.4083, the “logFC BUB1B” value ([3]; BUB1B (O60566-3), experiment wp133, 2 hr) was −0.4195 and the “logFC BUB1B” value ([3]; BUB1B (O60566-3), experiment wp133, 4 hr) was −0.5871. The logFC ([3]; CDK9 (P50750-2) protein abundance, degrader vs DMSO, 1 uM, down) was −1.356, the logFC ([3]; CDK9 (P50750-2) protein abundance, degrader vs DMSO, 2 hr, down) was −0.3971 and the logFC ([3]; CDK9 (P50750-2) protein abundance, degrader vs DMSO, 4 hr, down) was −1.037. The logFC ([3]; CDK18 (Q07002-3), experiment wp105) was −1.233, the logFC ([3]; CDK18 (Q07002-3), experiment wp114) was −0.8295 and the “logFC CSNK1D” value ([3]; CSNK1D P48730-2, experiment wp114) was −0.3991. The “logFC CSNK1D” value ([3]; CSNK1D P48730-2, experiment wp160, 4 hr) was −0.3373, the “logFC PRKAA1 (Q13131-2)” value ([3]; Experiment wp016, 1 uM, direction down) was −0.7977 and the “logFC PRKAA1 (Q13131-2)” value ([3]; Experiment wp016, direction down) was −0.4914. The “logFC CDK9 (P50750-2)” value ([3]; Experiment wp103) was −0.7857, the “logFC PRKAA1 (Q13131-2)” value ([3]; Experiment wp103, direction down) was −0.5012 and the “logFC PRKAA1 (Q13131-2)” value ([3]; Experiment wp105, direction down) was −0.4413. For the same compound, the “logFC MAP3K12 (Q12852-2)” value ([3]; Experiment wp105, direction of change down) was −0.6931, the “logFC CDK9 (P50750-2)” value ([3]; Experiment wp107) was −1.2 and the “logFC of CDK12 (Q9NYV4-2)” value ([3]; Experiment wp107) was −1.042. The “logFC PRKAA1 (Q13131-2)” value [3, 10] was −0.6352, the “logFC TNK2 (Q07912-3)” value [3, 10] was −1.18 and the “logFC of CDK18 (Q07002-3)” value ([3]; Experiment wp114) was −0.8295. For the same compound, the “logFC TNK1 (Q13470-2)” value ([3]; Experiment wp114, direction of change down) was −0.7394, the “logFC PRKAA1 (Q13131-2)” value ([3]; Experiment wp133, 2 hr, direction down) was −0.3804 and the “logFC PRKAA1 (Q13131-2)” value ([3]; Experiment wp133, 4 hr, direction down) was −0.6752. The “logFC of CDK12 (Q9NYV4-2)” value ([3]; Experiment wp160, 2 hr) was −0.4558, the “logFC ABL2 (P42684-5)” value ([3]; Experiment wp172) was −0.7139 and the “logFC of ABL2 (P42684-5)” value ([3]; Experiment wp172) was −0.7139. The logFC ([3]; FER (P16591-3), experiment wp114, direction down) was −2.308, the logFC ([3]; FER (P16591-3), experiment wp172, direction down) was −2.816 and the “logFC of FER” value ([3]; experiment wp114) was −2.308. For the same compound, the “logFC of FER” value ([3]; experiment wp172) was −2.816 and the “logFC LCK” value ([3]; LCK, accession P06239-3, experiment wp016, 1 uM, direction of change down) was −1.579.
